This note sets out measurements from patent publication US20230090439A1, “PHARMACEUTICAL COMPOSITION FOR CONTROLLING PARASITES ON NON-HUMAN ORGANISMS” (priority 2020, published 2023).

The data set in a line: Solubility experiments (saturation solubility in solvents, HPLC-UV of supernatant). The format is physicochemical. The settings on record: for Solubility in the solvent mixture of the composition according to the invention (in words): isopropanol/propylene carbonate 65:35, room temperature. The source says: Dissolution experiments for active ingredients I-1, I-2, I-3 and I-4 in solvents for a pharmaceutical composition according to the invention are presented below. For biological effect, the active ingredient should be incorporated at a certain dose or amount in the formulation, in the ideal case it should be a solution in the formulation such that the active ingredient is therefore dissolved in the solvent. A certain minimum solubility is required for the solvent since the application volume is limited.
In this case, 10 g of the appropriate solvent or solvent mixture were initially charged and as much active ingredient was added until the solution is saturated. Isopropanol (IPA) and propylene carbonate (PPC) were used as solvents. The samples were stirred for 3 days. Should the active ingredient become fully dissolved, active ingredient was again added. Subsequently, the samples were stored for a further 4 days at the relevant temperature and centrifuged in order to remove the undissolved particles. The supernatants were analyzed in each case for active ingredient content by HPLC-UV.
Furthermore, solubility experiments with three further active ingredients from the class of fluorinated heteroarylamides in different solvents were carried out. The solubility experiments were carried out analogously to the experiments described above, however only at room temperature and the solvent mixture isopropanol/propylene carbonate 65:35% [m/m] was selected.
Experiments with solvent systems were also carried out in which the first solvent comprised two alcohols.

Where [1] appears, read: Isopropanol, room temperature (Table 2).
The mark [2] stands for this setting: Isopropanol/propylene carbonate 65/35, room temperature (Table 2).
Setting [3] is: Propylene carbonate, room temperature (Table 2).

Molecule `CN(C(=O)c1cc(-c2cnn(-c3c(Cl)cc(C(F)(C(F)(F)F)C(F)(F)F)cc3Cl)c2)cnc1Cl)C1CC1` [I-1, 2-chloro-N-cyclopropyl-5-[1-[2,6-dichloro-4-[1,2,2,2-tetrafluoro-1-(trifluoromethyl)-ethyl]phenyl]pyrazol-4-yl]-N-methylpyridine-3-carboxamide] returned a Saturation solubility (Ethanol (Table 3)) of 2.76 % [ w/w]; a Saturation solubility (Ethanol/glycerol carbonate 65:35 (Table 3)) of 6.48 % [ w/w]; a Saturation solubility (Ethanol/propylene carbonate 65:35 (Table 3)) of 9.45 % [ w/w]; a Saturation solubility (Glycerol carbonate (Table 3)) of 0.15 % [ w/w]; a Saturation solubility (Isopropanol (Table 3)) of 1.56 % [ w/w]; a Saturation solubility (Isopropanol/glycerol carbonate 65:35 (Table 3)) of 5.98 % [ w/w]. In addition, the Saturation solubility (Propylene carbonate (Table 3)) worked out at 2.43 % [ w/w]. Besides, the Solubility is over 5 % [w/w] (Ethanol/propylene carbonate/glycerol carbonate 65:17.5:17.5), over 5 % [w/w] (Isopropanol/ethanol/glycerol carbonate 32.5:32.5:35), over 5 % [w/w] (Isopropanol/ethanol/propylene carbonate 32.5:32.5:35) and over 5 % [w/w] (Isopropanol/propylene carbonate/glycerol carbonate 65:17.5:17.5). Moreover, the “Saturation concentration of the solution” value (IPA/PPC 25/75 23° C.) was 7.58 %[w/w]; the “Saturation concentration of the solution” value (IPA/PPC 35/65 23° C.) was found to be 8.79 %[w/w]; the “Saturation concentration of the solution” value (IPA/PPC 50/50 23° C.) was determined as 9.26 %[w/w]; the “Saturation concentration of the solution” value (IPA/PPC 60/40 23° C.) was found to be 8.60 %[w/w]; the “Saturation concentration of the solution” value (IPA/PPC 65/35 5° C.) amounted to 6.32 %[w/w]; the “Saturation concentration of the solution” value (IPA/PPC 65/35 23° C.) stood at 8.31 %[w/w]. The “Saturation concentration of the solution” value turned out to be 7.49 %[w/w] (IPA/PPC 70/30 23° C.); 6.70 %[w/w] (IPA/PPC 75/25 23° C.); 5.90 %[w/w] (IPA/PPC 80/20 23° C.); 3.74 %[w/w] (IPA/PPC 90/10 23° C.); 0.98 %[w/w] (Isopropanol 5° C.); 1.56 %[w/w] (Isopropanol 23° C.). Further, the “Saturation concentration of the solution” value is, setting by setting: (Propylene carbonate 5° C.) 1.80 %[w/w]; (Propylene carbonate 23° C.) 2.43 %[w/w]. Besides, the “Solubility in the mixture of isopropanol and propylene carbonate compared to the pure solvents (in words)” value (mixture of isopropanol and propylene carbonate vs pure solvents) was “significant solubility increase”. Moreover, the “Solubility in the solvent systems of Table 4 (in words)” value (three-component alcohol/carbonate solvent systems of Table 4) was “good solubilities”.

In the case of `O=C(NC1CC1)c1cc(-c2cnn(-c3c(Cl)cc(C(F)(C(F)(F)F)C(F)(F)F)cc3OC(F)(F)F)c2)cnc1Cl` [I-2], the “Solubility in the solvent mixture of the composition according to the invention (in words)” value (“Solubility in the solvent mixture” for short) was “very good solubilities”. This molecule yielded a Saturation solubility under setting [1] of 6.99 % [w/w]. The same molecule gave a Saturation solubility under setting [2] of 24.20 % [w/w]. Under setting [3], this molecule showed a Saturation solubility of 5.34 % [w/w].

With `O=C(NC1CC1)c1cc(-c2cnn(-c3c(Br)cc(C(F)(C(F)(F)F)C(F)(F)F)cc3OC(F)(F)F)c2)cnc1Cl` [I-4], the “Solubility in the solvent mixture” value is “very good solubilities”. The molecule further gave a Saturation solubility under setting [1] of 13.42 % [w/w]. The molecule also displayed a Saturation solubility under setting [2] of 29.38 % [w/w]. The same molecule returned a Saturation solubility under setting [3] of 11.76 % [w/w].

Regarding `O=C(NC1CC1)c1cc(-c2cnn(-c3c(Cl)cc(C(F)(C(F)(F)F)C(F)(F)F)cc3C(F)(F)F)c2)cnc1Cl` [I-3, 2-chloro-5-[1-[2-chloro-4-[1,2,2,2-tetrafluoro-1-(trifluoromethyl)ethyl]-6-(trifluoromethyl)phenyl]-1H-pyrazol-4-yl]-N-cyclopropyl-3-pyridinecarboxamide], the “Solubility in the solvent mixture” value was “very good solubilities”. Also, under setting [1], the Saturation solubility turned out to be 4.18 % [w/w]. Also, under setting [2], the Saturation solubility stood at 17.57 % [w/w]. Moreover, under setting [3], the Saturation solubility was determined as 4.89 % [w/w].
